Data published in patent US20060172943A1, “Restoring vascular function” (priority 2003, published 2006).
Ends that are not written are not given here.

Columns and labels:
[1] = test system: tenascin-C mRNA expression in cultured rat cardiac endothelial cells; assay: PCR analysis of tenascin-C mRNA expression in cultured cardiac endothelial cells treated with PDGF; format: cell-based; conditions: data not shown
Method: Tenascin-C expression was induced by PDGF during in vitro studies in rat aortic smooth muscle cells. […] Control cells received no PDGF. Cardiac endothelial cells from young (4-month old) and old (24-month old) rat hearts were tested. The number of treated and non-treated cultures tested was two (n=2 per group). Tenascin-C expression was higher in PDGF-treated cells and in younger (4 month old) as opposed to older ([…]) cultures of rat cardiac endothelial cells.

[2] = test system: tenascin-C expression in the heart; assay: Immunohistochemical analysis of heart sections after intramyocardial PDGF injection; format: in vivo, rat; conditions: rats, 24 h, immunohistochemistry, data not shown
Method: Cardiac injections of PDGF ligand were performed as described in Xaymardan et al., Senescent impairment in synergistic cytokine pathways that provide rapid cardioprotection in the rat heart. J Exp Med, 199(6): p. 797-804 (2004). Briefly, rats were anesthetized, an intercostal thoracotomy was performed and then the rats received intramyocardial injections of PDGF-AB (100 ng/50 μl PBS) at the anterior wall of the myocardium (two 25 μl injections, 2 mm apart) through a 28 gauge needle. The chest wall was closed, the lungs inflated and the rats were extubated. Twenty-four hours later, the rats were sacrificed and the hearts were harvested for paraffin embedding and sectioning, using standard techniques.
(§1) The following primary antibodies were used for immunostaining histological sections: anti-tenascin-C (Santa Cruz Biotechnology, California), anti-pIII (Mobitec, Germany), anti-β-galactosidase (Biogenesis, U.K.), anti-PDGFRα (Santa Cruz Biotechnology). For consistency, sections for all analyses were selected from the mid-papillary region of the ventricles. Primary antibodies were labeled with biotin and visualized with Texas Red- and FITC-conjugated avidin (Vector Labs, California).

[3] = test system: rat cardiac microvascular endothelial cells; assay: Three-dimensional migration assay through collagen gel; format: cell-based; conditions: cells cultured 3 h on substrate 10 μg/ml, 48 hours; for increase of peak migration distance in response to PDGF compared to absence of growth factors: PDGF 5 ng/ml; for increase of peak migration distance in response to VEGF compared to absence of growth factors: VEGF 5 ng/ml
Method: (§2) Rat cardiac microvascular endothelial cells were isolated from 3-month-old rats according to the method of Nishida et al. (1995). Cells were cultured on either collagen-coated or tenascin-C-coated (10 μg/ml) 8-well chamber slides (Nunc Nalge International, Illinois.) in minimal media (5% fetal bovine serum, 1% penicillin, 1% streptomycin in Dulbecco's modified Eagle's medium) for up to 48 hours and photographed daily. […] For migration analysis, cells were covered with 300 μl of collagen gel (Chemicon, California) after 3 h of culture on 10 μg/ml collagen or tenascin-C. The gel was allowed to polymerize for 1 hour at 37° C. and 200 μl of minimal media containing VEGF or PDGF (5 ng/ml) or no growth factor was added to the wells. Cells were incubated for up to 48 h, and analyzed for peak migration rates using an inverted microscope (Nikon, Japan): migratory distance of the 5 cells that had migrated furthest through the Z-axis of the gel was determined using the Z-plane focus knob of the microscope. Each experiment was repeated 4 times.
A three-dimensional assay system was developed in which cardiac endothelial cells were cultured on either collagen or tenascin-C for 3 h, and then migration through a collagen gel was analyzed in response to PDGF, VEGF, or the absence of angiogenic growth factors (FIGS. 8A, B). After 48 hours, peak migration distances through the Z-axis of the gel were determined (FIG. 8C).

[4] = test system: rat cardiac microvascular endothelial cells; assay: In vitro cell adhesion and spreading analysis on coated substrates; format: cell-based; conditions: for cells that failed to attach to the substrate: within 10 min of plating
Method: as §2
The role of tenascin-C in the regulation of cardiac angiogenesis, endothelial cell phenotype and behavior was further analyzed by observing whether tenascin-C influenced cell adhesion. Cardiac endothelial cells were isolated from young hearts and cultured on either tenascin-C or collagen at a concentration of 10 μg/ml. […] Thus, it appeared that tenascin-C has a short-term anti-adhesive effect on cardiac endothelial cells. […] After 3 h of culture, 99% of cells were attached to the collagen substrate, while approximately 10% of cells on tenascin-C still fail to adhere in this time. Thus, tenascin-C can mediate endothelial cell attachment but, at least within the first few hours of endothelial cell binding to tenascin-C, this attachment is weak and cells maintain a rounded phenotype.
The time period and substrate concentration effects upon cell attachment were further examined by plating rat microvascular endothelial cells on various concentrations (1 μg/ml, 10 μg/ml and 100 μg/ml) of collagen and tenascin-C and observing the attachment of cells to these substrates. As shown in FIGS. 6A-C, within 3 hr, cells on collagen were well attached and beginning to spread into a monolayer. In contrast, cells plated on tenascin-C for 3 hr remained rounded, especially when higher concentrations of tenascin-C were used (FIGS. 6D-F).

[5] = test system: cardiac vasculature of young (3-month-old) and old (18-month-old) murine hearts; assay: In vivo phage binding in heart after tail vein injection, quantified by phage titering; conditions: individual tail vein injection; 3-month-old vs 18-month-old mice; titers of phage eluted from hearts
Method: To identify young-specific bone marrow-homing phage, a phage library encoding a cyclically constrained seven amino acid variable region (New England Biolabs, Massachusetts) was injected into young (3 month) and old (18-month) adult mice, using methods described in Cai, D., et al., Age-associated impairment in TNF-alpha cardioprotection from myocardial infarction. Am J Physiol Heart Circ Physiol, 2003. 285(2): p. H463-69. Phage clones were selected for sequencing from phage pools eluted from young rather than old bone marrow. To confirm that these clones preferentially bound to young bone marrow, the clones were injected individually into young and old mice and young bone marrow-specific clones were re-selected from the young mouse's bone marrow. Young bone marrow-homing phage were then analyzed for cardiac binding to identify phage epitopes that preferentially bound to young cardiac vasculature as well as young bone marrow. The number of bound phage recovered per mg of tissue was quantified by serial dilution titration. The age-associated differential cardiac binding capacity of a candidate phage clone, ψR3Y32 was confirmed using methods described in Cai et al. (2004).
Individual injection of ψR3Y32 confirmed 10-fold higher levels of ψR3Y32 binding in young compared to old murine hearts (FIG. 3A).

[6] = target: T1, tenascin-C in the cardiac vasculature (Mus musculus, UniProt Q80YX1); assay: Immunostaining of heart sections for phage coat protein pIII and tenascin-C; format: in vivo; conditions: rodent heart after phage injection
T1 construct: from tissue; host or cells: heart (cardiac vasculature) of phage-injected animals, paraffin sections
From the text: For immunohistochemical analysis of phage binding, hearts were harvested after phage injection, and then prepared for paraffin embedding and sectioning using standard histochemical procedures.
as §1
To investigate whether tenascin is an in vivo receptor for ψR3Y32, expression of tenascin-C as well as its relationship to phage binding sites was analyzed in the rodent heart. […] Co-staining for tenascin-C and the nuclear marker 4,6-diamidino-2-phenylindole (DAPI) further confirmed that tenascin-C is expressed on the luminal surface of cardiac vessels, and therefore may act at sites of endothelial cell/EPC cell incorporation during vascular remodeling (FIG. 3D).

[7] = 3 hours of incubation, substrate 10 μg/ml
[8] = after 3 h of culture, substrate 10 μg/ml

T1 sequence (Q80YX1 23-2110): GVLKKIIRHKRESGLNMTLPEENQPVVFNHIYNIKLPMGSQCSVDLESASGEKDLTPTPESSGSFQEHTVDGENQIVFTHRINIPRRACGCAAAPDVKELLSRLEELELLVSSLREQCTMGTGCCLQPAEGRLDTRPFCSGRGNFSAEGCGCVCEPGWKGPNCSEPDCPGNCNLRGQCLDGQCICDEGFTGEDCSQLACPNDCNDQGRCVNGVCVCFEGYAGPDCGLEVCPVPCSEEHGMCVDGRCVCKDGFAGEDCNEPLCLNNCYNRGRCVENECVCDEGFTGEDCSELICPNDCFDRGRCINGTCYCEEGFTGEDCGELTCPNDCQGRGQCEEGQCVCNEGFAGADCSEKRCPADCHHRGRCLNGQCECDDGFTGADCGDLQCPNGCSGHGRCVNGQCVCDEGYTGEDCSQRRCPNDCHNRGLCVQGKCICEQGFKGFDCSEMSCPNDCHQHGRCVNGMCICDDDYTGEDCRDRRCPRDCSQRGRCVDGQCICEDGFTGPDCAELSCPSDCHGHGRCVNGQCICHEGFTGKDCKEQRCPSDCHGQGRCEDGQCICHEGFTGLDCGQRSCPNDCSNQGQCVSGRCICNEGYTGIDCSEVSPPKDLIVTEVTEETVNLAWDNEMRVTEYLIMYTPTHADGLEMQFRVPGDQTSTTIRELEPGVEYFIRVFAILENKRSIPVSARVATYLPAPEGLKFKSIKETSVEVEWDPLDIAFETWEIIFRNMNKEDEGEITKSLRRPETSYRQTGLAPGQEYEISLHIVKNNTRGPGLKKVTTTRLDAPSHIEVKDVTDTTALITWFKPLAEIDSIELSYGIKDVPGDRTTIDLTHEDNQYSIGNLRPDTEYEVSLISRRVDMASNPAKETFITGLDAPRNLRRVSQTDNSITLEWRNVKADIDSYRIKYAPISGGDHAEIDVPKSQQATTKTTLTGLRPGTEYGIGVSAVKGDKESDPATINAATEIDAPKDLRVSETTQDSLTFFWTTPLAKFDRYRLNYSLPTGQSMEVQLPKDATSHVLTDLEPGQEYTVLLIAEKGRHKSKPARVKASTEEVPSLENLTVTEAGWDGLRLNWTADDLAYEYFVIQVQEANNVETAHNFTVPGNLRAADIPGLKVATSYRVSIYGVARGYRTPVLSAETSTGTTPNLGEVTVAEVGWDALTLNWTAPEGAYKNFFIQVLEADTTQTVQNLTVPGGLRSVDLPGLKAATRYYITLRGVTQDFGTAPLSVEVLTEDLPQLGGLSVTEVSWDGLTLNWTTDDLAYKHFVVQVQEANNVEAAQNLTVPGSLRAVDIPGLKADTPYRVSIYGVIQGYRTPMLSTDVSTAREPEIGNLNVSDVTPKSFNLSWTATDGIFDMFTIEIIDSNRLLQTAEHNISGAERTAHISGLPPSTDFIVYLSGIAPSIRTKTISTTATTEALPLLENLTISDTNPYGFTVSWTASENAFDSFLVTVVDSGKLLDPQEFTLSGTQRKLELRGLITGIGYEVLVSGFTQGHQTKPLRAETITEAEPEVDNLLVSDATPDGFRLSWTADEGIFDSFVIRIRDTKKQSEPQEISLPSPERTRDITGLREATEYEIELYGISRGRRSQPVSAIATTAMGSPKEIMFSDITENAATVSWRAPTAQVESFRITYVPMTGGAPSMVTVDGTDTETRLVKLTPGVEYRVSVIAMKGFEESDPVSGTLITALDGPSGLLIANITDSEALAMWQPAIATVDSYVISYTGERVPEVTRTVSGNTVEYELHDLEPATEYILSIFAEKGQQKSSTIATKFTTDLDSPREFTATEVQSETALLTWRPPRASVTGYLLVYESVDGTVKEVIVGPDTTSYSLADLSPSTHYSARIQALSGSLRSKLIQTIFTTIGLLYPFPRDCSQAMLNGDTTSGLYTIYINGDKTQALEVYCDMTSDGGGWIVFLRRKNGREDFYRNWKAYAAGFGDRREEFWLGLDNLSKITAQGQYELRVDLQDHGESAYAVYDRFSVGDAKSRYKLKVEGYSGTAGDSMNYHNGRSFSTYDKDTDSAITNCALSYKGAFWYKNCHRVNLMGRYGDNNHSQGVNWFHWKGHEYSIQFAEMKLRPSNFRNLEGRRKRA

For “PDGF-AB: platelet derived growth factor AB heterodimer ligand”, the “time of peak upregulation of tenascin-C mRNA” value ([1]; RT-PCR, cardiac endothelial cells cultured with exogenous PDGF ligand) was 6 h, the “tenascin-C mRNA expression in cardiac endothelial cells after treatment” value ([1]; real-time PCR, cultured rat cardiac endothelial cells, n=2 per group) was “increased” and the “tenascin-C expression in heart sections after treatment” value [2] was “increases tenascin-C expression”.
For collagen [reference compound], the “increase of peak migration distance in response to PDGF compared to absence of growth factors” value [3] was 51.4%, the “increase of peak migration distance in response to VEGF compared to absence of growth factors” value [3] was 63.3% and the “cell attachment and morphology” value [4, 7] was “attached well and were beginning to spread”. The “cells attached to the substrate” value [4, 8] was 99% and the “cells that failed to attach to the substrate” value ([4]; substrate 10 μg/ml) was 16.9%.
“tenascin-C: hexameric extracellular matrix glycoprotein, used as coating substrate for cardiac endothelial cells” was tested, and the “increase of peak migration distance in response to PDGF compared to absence of growth factors” value [3] was 64.3%, the “increase of peak migration distance in response to VEGF compared to absence of growth factors” value [3] was 91.6% and the “cell attachment and morphology” value [4, 7] was “rounded and poorly attached”. For the same substance, the “cell attachment and morphology” value ([4]; 24 hours of culture, substrate 10 μg/ml) was “well attached and spread and formed a typical endothelial monolayer”, the “cell attachment and morphology” value ([4]; 24 hr, substrate 100 μg/ml) was “formed multi-layered cell clusters” and the “cells that fail to adhere” value [4, 8] was “approximately 10%”. For the same substance, the “cells that failed to attach to the substrate” value ([4]; substrate 10 μg/ml) was 86.9%.
“ψR3Y32: phage clone from in vivo biopanning displaying a cyclically constrained peptide with core motif STISHN (SEQ ID NO:1), homologous to alpha-8 integrin (also: displayed on phage, cyclically constrained; listed as Homo sapiens)” was tested, and the “levels of phage binding in young compared to old murine hearts” value [5] was 10 fold and the “binding of phage to vessels within the heart (pIII immunostaining)” value [6] was “confirmed the binding of ψR3Y32 to vessels within the heart”.
